Earlier results as cited in patent publication US20240226024A1 (Empros Pharma AB, priority 2021, published 2024).

Tests used:
[1] = for Fraction of the dose absorbed: oral administration
[2] = for Placebo adjusted reduction of body weight: oral administration for 6 months; for Additional weight loss relative to placebo at one year: on average
[3] = not given; remark: listed apart in the source

## OCCN1C[C@H](O)[C@@H](O)[C@H](O)[C@H]1CO [Miglitol, miglitol]
[1]
  Fraction of the dose absorbed: 100%

## C[C@H]1O[C@H](O[C@H]2[C@H](O)[C@@H](O)[C@@H](O[C@H]3[C@H](O)[C@@H](O)C(O)O[C@@H]3CO)O[C@@H]2CO)[C@H](O)[C@@H](O)[C@@H]1N[C@H]1C=C(CO)[C@@H](O)[C@H](O)[C@H]1O (stereo partly drawn) [acarbose, O-4,6-Dideoxy-4-[[(1S,4R,5S,6S)-4,5,6-trihydroxy-3-(hydroxymethyl)cyclohex-2-enyl]amino]-α-D-glucopyranosyl-(1→4)-O-α-D-gluco-pyranosyl-(1→4)-D-glucopyranose]
[2]
  Placebo adjusted reduction of body weight: approx. 0.5%

## C[C@H]1CNCCc2ccc(Cl)cc21 [lorcaserin]
[2]; human, in vivo
  Decrease of body weight more than placebo: about 3.2 kg
  Decrease of body weight more than placebo, % of initial body weight: about 3.2%
[2]
  Additional weight loss relative to placebo at one year: ~3%

## CCCCCCCCCCC[C@@H](C[C@@H]1OC(=O)[C@H]1CCCCCC)OC(=O)[C@H](CC(C)C)NC=O [orlistat, (S)-((S)-1-((2S,3S)-3-Hexyl-4-oxooxetan-2-yl)tridecan-2-yl) 2-formamido-4-methylpentanoate]
other
  Solubility in water (in words): practically insoluble in water
  Water solubility: less than 0.001 g/ml
  log P: 8.5
[3]; 6-month trial
  Participants who reported faecal incontinence, similar 6-month trial: 5%
[3]; diarrhea, oily spotting and fecal urgency
  Patients who complain about GI side-effects in clinical trials: ≥ 25%
[3]; trials of longer duration
  Participants who reported faecal incontinence, trials of longer duration: approximately 18%
[2]; conventional dosage form, placebo 6%
  Relative weight loss, best case scenario: 10%
[2]; conventional dosage forms
  Approximate relative weight loss, conventional dosage form: 2-3%
[2]
  Additional weight loss relative to placebo at one year: ~3%
  Placebo adjusted reduction of body weight: 2-3%
[1]
  Fraction of the dose absorbed: < 3%
[1]; oral, conventional dosage form
  Plasma exposure: < 5 ng/mL

## OCC(CO)N[C@H]1C[C@](O)(CO)[C@@H](O)[C@H](O)[C@H]1O [voglibose]
[1]
  Fraction of the dose absorbed: only negligibly absorbed
